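Cultured in 96-well plates, cells were exposed to test compound for 48 hours across five concentrations. GI50 is the concentration that inhibits growth by half.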 Calls of active or inactive are those of the source. Rule as the data show it: active = GI50 up to about 1.1 µM and inactive = higher.

Test systems include HL-60; MDA-MB-231; TK-10; OVCAR-5; SF-268; NCI-H460; SNB-19; SK-MEL-28; PC-3; T47D; HCT-116; LOX IMVI; HCC 2998; OVCAR-3; MDA-N; UO-31; DU-145; OVCAR-4; NCI-H522; SF-539.
Common to all, as to test: NCI anticancer screen, dose series, 48 h

For `Cc1ccc2nc(CC(=O)c3ccc4ccccc4c3)c(O)nc2c1`, the GI50 in the experiment with HL-60, in the experiment on MDA-MB-231, in the experiment with TK-10, in the experiment with OVCAR-5, in the experiment on SF-268 and in the experiment with NCI-H460 was > 100 µM (inactive) in each case. Further, the GI50 in the experiment on SNB-19, in the experiment with SK-MEL-28, in the experiment on PC-3, in the experiment with T47D, with HCT-116 and in the experiment on LOX IMVI was > 100 µM (inactive) throughout. Further, the GI50 in the experiment on HCC 2998, in the experiment with OVCAR-3, with MDA-N, with UO-31, in the experiment on DU-145 and in the experiment on OVCAR-4 was > 100 µM (inactive) throughout. The GI50 in the experiment on NCI-H522 and in the experiment with SF-539 was > 100 µM (inactive) throughout.

`CC/C(Cl)=N\OC(=O)Nc1ccc(C#N)cc1`: the GI50 with HL-60 is 2.01 µM (inactive); with MDA-MB-231, 15.3 µM (inactive); in the experiment with TK-10, 16.4 µM (inactive); with OVCAR-5, 15.9 µM (inactive); with SF-268, 18.1 µM (inactive); in the experiment on NCI-H460, 19.5 µM (inactive). The GI50 in the experiment on SNB-19 is > 100 µM (inactive); in the experiment with SK-MEL-28 it was 18 µM (inactive); with PC-3, 16.7 µM (inactive); in the experiment on T47D, 10.8 µM (inactive); with HCT-116 it was 14.6 µM (inactive); with LOX IMVI it was 4.47 µM (inactive). Also, the GI50 in the experiment with HCC 2998 was 16.4 µM (inactive); with OVCAR-3, 18.5 µM (inactive); in the experiment with MDA-N, 16.3 µM (inactive); in the experiment on UO-31 it was 17.2 µM (inactive); with DU-145, 16 µM (inactive); with OVCAR-4, 8.09 µM (inactive). Besides, the values for the GI50 in the experiment on NCI-H522 and in the experiment with SF-539 were 1.48 µM (inactive) and 16.6 µM (inactive), respectively.

Regarding `COC(=O)CCc1ccc2c(c1)CC1(C2)Cc2ccc3c(c2C1)CCC3` (stereo not drawn), the GI50 with HL-60 was 30.3 µM (inactive); in the experiment with MDA-MB-231, 89.1 µM (inactive); in the experiment on TK-10, > 100 µM (inactive); in the experiment with OVCAR-5, > 10 µM (inactive); in the experiment with SF-268, > 100 µM (inactive); in the experiment with NCI-H460, > 100 µM (inactive). The GI50 in the experiment on SNB-19 is > 100 µM (inactive); in the experiment on SK-MEL-28, > 100 µM (inactive); with PC-3 it was > 100 µM (inactive); with T47D, 18.8 µM (inactive); in the experiment with HCT-116, > 100 µM (inactive); with LOX IMVI, > 100 µM (inactive). For the same compound, the GI50 was 52.4 µM (inactive) with HCC 2998; > 100 µM (inactive) with OVCAR-3; 87.9 µM (inactive) with MDA-N; 32.4 µM (inactive) in the experiment on UO-31; 70 µM (inactive) in the experiment on DU-145; 49.1 µM (inactive) with OVCAR-4. In addition, the GI50 is 59.2 µM (inactive) in the experiment on NCI-H522 and > 100 µM (inactive) in the experiment with SF-539.

On to `C/N=c1/oc2ccccc2cc1C(N)=O`, for which the GI50 in the experiment on HL-60 was > 100 µM (inactive); in the experiment on MDA-MB-231, > 100 µM (inactive); with TK-10 it was > 100 µM (inactive); in the experiment with SF-268, > 100 µM (inactive); in the experiment on NCI-H460, > 100 µM (inactive); with SNB-19 it was 56.4 µM (inactive). The GI50 in the experiment on SK-MEL-28, in the experiment with PC-3, with T47D, in the experiment on HCT-116, with LOX IMVI and in the experiment with HCC 2998 was > 100 µM (inactive) in each case. For the same compound, the GI50 in the experiment on OVCAR-3 is > 100 µM (inactive); in the experiment with MDA-N, > 100 µM (inactive); in the experiment on UO-31 it was 58.2 µM (inactive); with DU-145, > 100 µM (inactive); in the experiment with NCI-H522, > 100 µM (inactive); in the experiment on SF-539, > 100 µM (inactive).

For the compound `CSc1nc(NC2OC(COC(C)=O)C(OC(C)=O)C(OC(C)=O)C2OC(C)=O)c(/N=C\C=N/c2c(NC3OC(COC(C)=O)C(OC(C)=O)C(OC(C)=O)C3OC(C)=O)nc(SC)n(C)c2=O)c(=O)n1C` (stereo not drawn), the GI50 is > 100 µM (inactive) in the experiment on HL-60; 49.3 µM (inactive) with MDA-MB-231; 45.9 µM (inactive) with TK-10; > 100 µM (inactive) in the experiment on OVCAR-5; 62.1 µM (inactive) in the experiment on SF-268; > 100 µM (inactive) in the experiment with NCI-H460. For the same compound, the GI50 is 38.6 µM (inactive) in the experiment with SNB-19; > 100 µM (inactive) in the experiment on SK-MEL-28; > 100 µM (inactive) with PC-3; 96.8 µM (inactive) in the experiment with T47D; > 100 µM (inactive) in the experiment on HCT-116; > 95.3 µM (inactive) in the experiment with LOX IMVI. For the same compound, the GI50 in the experiment with HCC 2998 was > 100 µM (inactive); in the experiment with OVCAR-3, > 15.5 µM (inactive); in the experiment on MDA-N, > 100 µM (inactive); with UO-31, > 100 µM (inactive); in the experiment on DU-145 it was > 100 µM (inactive); in the experiment on OVCAR-4, > 100 µM (inactive). The GI50 is > 100 µM (inactive) in the experiment with NCI-H522 and 38 µM (inactive) in the experiment with SF-539.

Take `COc1cc(CSc2ccc(O)cc2)cc(O)c1O`: the GI50 in the experiment with HL-60 is 19.6 µM (inactive); with MDA-MB-231 it was 25.4 µM (inactive); in the experiment on TK-10 it was 53.1 µM (inactive); in the experiment with OVCAR-5, 23.4 µM (inactive); with SF-268 it was 28.8 µM (inactive); in the experiment with NCI-H460, > 10 µM (inactive). The GI50 with SNB-19 was 37 µM (inactive); with SK-MEL-28 it was 46.2 µM (inactive); in the experiment with PC-3 it was 49.3 µM (inactive); in the experiment on T47D, 28.8 µM (inactive); in the experiment on HCT-116 it was 22.1 µM (inactive); with LOX IMVI it was 36.2 µM (inactive). Further, the GI50 is 29.2 µM (inactive) in the experiment with HCC 2998; 26.2 µM (inactive) in the experiment with OVCAR-3; 26.7 µM (inactive) in the experiment on MDA-N; 27.2 µM (inactive) with UO-31; 44.5 µM (inactive) in the experiment with DU-145; 16.1 µM (inactive) in the experiment on NCI-H522. Further, in the experiment on SF-539, the GI50 is 29.9 µM (inactive).

Take `O=C1C(Cl)=C(N(C(=O)c2ccccc2)C(=O)c2ccccc2)C(=O)c2ccccc21`: the GI50 is 1.08 µM (active) with HL-60; 9.71 µM (inactive) in the experiment with MDA-MB-231; 21.2 µM (inactive) with TK-10; 12.2 µM (inactive) in the experiment with OVCAR-5; 2.48 µM (inactive) with SF-268; 5.12 µM (inactive) with NCI-H460. Besides, the GI50 in the experiment with SNB-19 was 26.6 µM (inactive); with SK-MEL-28, 14.9 µM (inactive); in the experiment with PC-3 it was 9.18 µM (inactive); in the experiment with T47D, 4.68 µM (inactive); with HCT-116, 4.12 µM (inactive); in the experiment with LOX IMVI, 25.6 µM (inactive). Besides, the GI50 with HCC 2998 is 12.1 µM (inactive); with OVCAR-3, 10.9 µM (inactive); with MDA-N it was 13.1 µM (inactive); in the experiment with UO-31, 3.39 µM (inactive); in the experiment with DU-145, > 100 µM (inactive); with NCI-H522 it was 5.7 µM (inactive). In addition, the GI50 in the experiment with SF-539 was 4.3 µM (inactive).

Take `N#CC1=C(N)OC(c2ccc([N+](=O)[O-])cc2)C1(C#N)C#N` (stereo not drawn): the GI50 in the experiment with HL-60 is 3.46 µM (inactive); in the experiment on MDA-MB-231 it was 16.4 µM (inactive); in the experiment on TK-10, 13.2 µM (inactive); with OVCAR-5, 18.7 µM (inactive); with SF-268, 23.3 µM (inactive); in the experiment on SNB-19, 22.4 µM (inactive). Moreover, the GI50 with SK-MEL-28 is 9.4 µM (inactive); in the experiment on PC-3 it was 17.1 µM (inactive); in the experiment on T47D, 18.4 µM (inactive); in the experiment with HCT-116 it was 9.77 µM (inactive); with LOX IMVI, 8.49 µM (inactive); in the experiment on HCC 2998, 9.46 µM (inactive). In addition, the GI50 with OVCAR-3 is > 10 µM (inactive); in the experiment with MDA-N it was 9.18 µM (inactive); in the experiment on UO-31 it was 6.27 µM (inactive); in the experiment on DU-145 it was 17.9 µM (inactive); with OVCAR-4 it was 17.8 µM (inactive); in the experiment on NCI-H522, 6.62 µM (inactive). Moreover, the GI50 in the experiment on SF-539 is 15.1 µM (inactive).

With `CCOC(=O)C1C(=O)C=C(c2cc(C)ccc2O)CC1c1cccc(Br)c1` (stereo not drawn), the GI50 is 20.9 µM (inactive) with HL-60; 19.6 µM (inactive) in the experiment on MDA-MB-231; 17.7 µM (inactive) in the experiment with TK-10; 25.1 µM (inactive) in the experiment on OVCAR-5; 19.5 µM (inactive) with SF-268; 19.5 µM (inactive) in the experiment with NCI-H460. Besides, the GI50 in the experiment with SNB-19 was 13.4 µM (inactive); with PC-3 it was 7.8 µM (inactive); with T47D, 18.6 µM (inactive); with HCT-116, 18 µM (inactive); with LOX IMVI, 15.6 µM (inactive); in the experiment with HCC 2998, 17.9 µM (inactive). In addition, the GI50 is 21.5 µM (inactive) with OVCAR-3; 4.05 µM (inactive) with MDA-N; 20.9 µM (inactive) with UO-31; 34.4 µM (inactive) in the experiment with DU-145; 0.075 µM (active) with OVCAR-4; 14.7 µM (inactive) with NCI-H522. Besides, in the experiment on SF-539, the GI50 was 16.2 µM (inactive).

On to `O=C1c2ccccc2C(=O)c2c1ccc1c2OCO1`, for which the GI50 in the experiment on HL-60, in the experiment with MDA-MB-231, in the experiment with TK-10, with OVCAR-5, with SF-268 and in the experiment with SNB-19 was > 100 µM (inactive) in each case. Also, the GI50 in the experiment on SK-MEL-28, with PC-3, in the experiment with T47D, in the experiment on HCT-116, in the experiment on LOX IMVI and with HCC 2998 was > 100 µM (inactive) in each case. For the same compound, the GI50 with OVCAR-3, with MDA-N, in the experiment on UO-31, in the experiment on DU-145, in the experiment on OVCAR-4 and with NCI-H522 was > 100 µM (inactive) throughout. In addition, the GI50 in the experiment on SF-539 was > 100 µM (inactive).

Values taken from ChEMBL document CHEMBL1201862, “PubChem BioAssay data set” (2004).
